This is an account of results in article PMC12516557, “Isolation and characterization of peroxidase from potato leaves Solanum tuberosum: Application in glucose diagnostic kit” (Journal of Genetic Engineering & Biotechnology, 2025).

SMILES strings stand for the structures.

For this assay, the system named is T1, potato leaves peroxidase (PLPOD).
T1 construct: gene POD; native enzyme from mature leaves (Nile Delta, Egypt); CM-cellulose and Sephacryl S-300; 64 kDa by gel filtration; 3 activity bands ~40-65 kDa on SDS-PAGE
Briefly: guaiacol oxidation at […] nm, Lineweaver-Burk plot. The assay is classed as biochemical, Solanum tuberosum. The following applies: co-substrate H2O2; sodium acetate buffer pH 5.6 (general assay); mixture of isoenzymes; discussion b65 prints 0.066 mM.

The term Km denotes the concentration of substrate that gives half-maximal velocity. For the molecule `COc1ccccc1O` [guaiacol], the Km came to 67 µM.
